Laboratory results: PMC4875962 (Clinical Pharmacokinetics, 2015)
Entries after “also recorded” stand apart in the source; their conditions may differ. Like-named read-outs stand apart in the source and are kept apart here. Marks after values point to notes of the source that are not given here.

Assays:
[1] = tested on: OCT2; details: read-out: IC50, inhibitory effect on OCT2; cited from earlier work
[2] = tested on: P-glycoprotein (P-gp); details: Caco-2 cell monolayers; cited from earlier work
[3] = cited from earlier work
[4] = cited from earlier work; remark: listed apart in the source
[5] = tested on: OAT1; details: cited from earlier work
[6] = tested on: OATP1B3; details: read-out: IC50, inhibitory effect on OATP1B3; cited from earlier work
[7] = tested on: CYP3A4; test: Induction of gene expression in human hepatocytes; details: data on file
[8] = cited from earlier work; remark: listed apart in the source
[9] = tested on: OAT3; details: cited from earlier work
[10] = tested on: PT, INR, aPTT, intrinsic FX activity, thrombin generation, anti-FXa; details: cited from earlier work
[11] = In vitro plasma protein binding
[12] = tested on: multidrug resistance protein 1 (MDR1; P-gp); test: Induction of gene expression in human hepatocytes; details: data on file
[13] = cited from earlier work; remark: listed apart in the source
[14] = 60 mg of [14C]-edoxaban, cited from earlier work
[15] = tested on: P-gp; details: read-out: IC50, inhibitory effect on P-gp; cited from earlier work
[16] = pH range of 3–7, decreases with increasing pH; cited from earlier work
[17] = tested on: OATP1B1; details: cited from earlier work
[18] = Drug-drug interaction studies: effect on edoxaban pharmacokinetics; details: coadministration of high-dose aspirin (325 mg); data on file
[19] = concentrations of 0.2–5 µg/mL; cited from earlier work
[20] = tested on: ex vivo thrombus formation; details: single 60 mg dose, healthy subjects; cited from earlier work
[21] = cited from earlier work; remark: listed apart in the source
[22] = 60 mg twice daily, elderly healthy subjects; cited from earlier work
[23] = cited from earlier work; remark: listed apart in the source
[24] = tested on: OATP1B1; details: read-out: IC50, inhibitory effect on OATP1B1; cited from earlier work
[25] = cited from earlier work; remark: listed apart in the source
[26] = tested on: plasma anti-FXa activity, PT, aPTT; details: cited from earlier work
[27] = tested on: OCT2; details: cited from earlier work
[28] = cited from earlier work; remark: listed apart in the source
[29] = tested on: thrombin generation and platelet activation; details: postdose; cited from earlier work
[30] = cited from earlier work; for dose–exposure relationship: oral doses 10–180 mg
[31] = tested on: OAT3; details: read-out: IC50, inhibitory effect on OAT3; cited from earlier work
[32] = single dose, vs matched healthy controls; cited from earlier work
[33] = Mild impairment: CLCR ≥50–≤80 mL/min
[34] = Moderate impairment: CLCR ≥30–<50 mL/min
[35] = Severe impairment: CLCR <30 mL/min
[36] = 60 mg daily for 4 days, day 1 and day 4
[37] = intravenous 30 mg, healthy subjects
[38] = single oral dose of edoxaban 60 mg, healthy subjects, mean ± SD

CN1CCc2nc(C(=O)N[C@@H]3C[C@@H](C(=O)N(C)C)CC[C@@H]3NC(=O)C(=O)Nc3ccc(Cl)cn3)sc2C1 [edoxaban]
IC50 [1]: ≥ 100 µM
substrate of the efflux transporter P-gp [2]: is a substrate
pharmacokinetic parameters vs continual treatment with edoxaban ([3]; 60 mg on day 4 after rivaroxaban 20 mg once daily for 3 days): similar
pharmacokinetic parameters vs 4 days of continual edoxaban ([3]; 60 mg single dose after dabigatran 150 mg twice daily for 3 days): similar
anticoagulant effects (anti-FXa, PT, aPTT, ETP) vs 4 days of continual edoxaban ([3]; after switching from rivaroxaban): similar
PT and anti-FXa activities, switched from dabigatran vs continuous edoxaban [3]: not different
aPTT and ETP after switching from dabigatran [3]: carryover effect
effect of warfarin on the pharmacokinetics of edoxaban ([3]; switching 24 h after cessation of warfarin): no effect
partition in blood [4]: 46%
substrate of OAT1 [5]: is not a substrate
IC50 [6]: ≥ 50 µM
induction of gene expression of CYP3A4 [7]: do not induce
change in QTcI value, one subject ([8]; 90 mg dose group, 10 h postdose): 32 ms
upper bounds of the 95 % one-sided CIs for placebo-corrected QTcI change from time-matched baseline ([8]; 90 and 180 mg, any time point): ≤ 4 ms
effect on cardiac repolarization ([8]; 90 and 180 mg): did not have a threshold pharmacological effect
changes in QTcI, all except one subject ([8]; all time points): below 30 ms
absolute value of QTcI ([8]; any subject, 90 and 180 mg): ≤ 450 ms
substrate of OAT3 [9]: is not a substrate
effect on PT, INR, aPTT or intrinsic FX activity ([10]; coadministration of low-dose aspirin (100 mg)): did not significantly affect
effect on anti-FXa when both drugs coadministered ([10]; edoxaban 60 mg and subcutaneous enoxaparin 1 mg/kg): additive
fraction unbound [11]: ~0.45
induction of gene expression of MDR1 (P-gp) [12]: do not induce
effect of ABCB1 genotype (C3435T) on pharmacokinetics [13]: no effect
total radioactive dose detected in faeces ([14]; healthy subjects): 62%
total radioactive dose detected in urine ([14]; healthy subjects): 35%
unchanged edoxaban in faeces, share of total administered radioactive dose [14]: 49%
unchanged edoxaban in urine, share of total administered radioactive dose [14]: 24%
IC50 [15]: ≥ 50 µM
solubility [16]: pH dependent
substrate of OATP1B1 [17]: is not a substrate
reduction of renal clearance of edoxaban [18]: 17%
in vitro total plasma protein binding [19]: about 55%
ex vivo thrombus formation under high and low shear rates [20]: markedly reduced
AUC∞ [21, 33]: 636 ± 152 ng·h/mL
CL/F [21, 33]: 24.8 ± 6.00 L/h
CLR [21, 33]: 7.68 ± 2.57 L/h
AUC∞ [21, 34]: 816 ± 209 ng·h/mL
C max [21, 34]: 115 ± 42.3 ng/mL
CL/F [21, 34]: 19.4 ± 4.69 L/h
CLR [21, 34]: 4.30 ± 1.72 L/h
AUC∞ ([21]; Normal: CLCR >80 mL/min): 453 ± 102 ng·h/mL
CL/F ([21]; Normal: CLCR >80 mL/min): 34.6 ± 7.32 L/h
C max [21, 35]: 91.9 ± 32.8 ng/mL
CL/F [21, 35]: 18.5 ± 4.87 L/h
CLR [21, 35]: 2.12 ± 0.88 L/h
higher total exposure vs normal renal function ([21]; mild renal impairment (CLCR ≥50–≤80 mL/min)): 32%
higher total exposure vs normal renal function ([21]; moderate renal impairment (CLCR ≥30–<50 mL/min)): 74%
higher total exposure vs normal renal function ([21]; severe renal impairment (CLCR <30 mL/min)): 72%
rebound effect following cessation of dosing [22]: no evidence of a rebound effect
fraction absorbed in the colon [23]: approximately 13%
IC50 [24]: ≥ 50 µM
increase of mean peak exposure (Cmax) in the fed state vs fasted state ([25]; 60 mg single dose): 6–22%
increase of total exposure with food ([25]; 60 mg single dose): 12–15%
effect of food on total exposure [25]: Coadministration with food does not affect total edoxaban exposure
time to peak elevation of PT and aPTT [26, 36]: ≤ 2 h
time to return of PT and aPTT to near-baseline levels [26, 36]: ≤ 24 h
time to peak effects on anticoagulation markers (anti-FXa, PT, aPTT) ([26]; oral administration): 1 to 2 h
time to maximum effect on plasma anti-FXa activity ([26]; single dose 10–150 mg, healthy subjects): 1 to 2 h
substrate of OCT2 [27]: is not a substrate
effect on prolongation of bleeding time ([28]; coadministration of edoxaban and low-dose (100 mg) or high-dose aspirin (325 mg)): additive effect
increase in bleeding time vs naproxen alone ([28]; coadministration of edoxaban with naproxen, 90 % CI 98.1–151.0): 22%
time of nadir for shed blood F1+2 and β-thromboglobulin [29]: 1.5 h
effect of age, sex and race on edoxaban pharmacokinetics ([30]; after renal function is taken into account): do not affect
contribution of any individual metabolic pathway to total clearance [30]: ≤ 10%
inter- and intra-subject variability in clearance and volume of distribution [30]: < 30%
metabolism by CYP3A4 (CYP3A4/5) (share of clearance) [30]: < 10%
renal clearance as share of total clearance [30]: approximately 50%
Renal clearance ([30]; healthy subjects): about 10.7 ± 3.00 L/h
metabolism by CES1 (share of clearance) ([30]; human-specific metabolite): < 10%
CL total body clearance [30, 37]: approximately 22 L/h
V ss steady-state volume of distribution [30, 37]: approximately 107 L
V z volume of distribution based on the terminal phase [30, 37]: 205 ± 64.8 L
CL total body clearance ([30]; intravenous 30 mg, healthy subjects, listed as Edoxaban): 21.8 ± 3.03 L/h
dose–exposure relationship ([30]; healthy subjects): approximately dose proportional; also recorded: slightly less-than-dose-proportional
dose–exposure relationship ([30]; healthy subjects, listed as Edoxaban): generally linear and dose-proportional
terminal elimination half-life ([30]; oral, healthy subjects): 10 to 14 h
CLR (oral) ([30]; single oral dose of edoxaban 60 mg, healthy subjects, N = 32): 9.95 ± 2.32^a L/h
AUC∞ (oral) [30, 38]: 1766 ± 435.3 ng·h/mL
C max (oral) [30, 38]: 256 ± 87.7 ng/mL
t ½ (oral) [30, 38]: 11.5 ± 5.63 h
t max (oral) ([30]; single oral dose of edoxaban 60 mg, healthy subjects, median [minimum–maximum]): 1.02 [0.500–3.00] h
IC50 [31]: ≥ 100 µM
effect of mild or moderate hepatic impairment on peak or total exposure [32]: did not significantly impact
